Patent US6893821B2, “Agents that modulate DNA-PK activity and methods of use thereof” (The Regents of the University of California, priority 2000, dated 2005)
Entries after “also recorded” stand apart in the source; their conditions may differ.

How the values were obtained:
DNA-PK = target: T1, DNA-PK (Homo sapiens, UniProt P12956+P13010+P78527); experiment: In vitro DNA-PK phosphorylation assay (affinity-purified DNA-PK, GST-p53 (1-70) substrate); type: biochemical; settings: 30° C., 30 minutes; ps-ss ODNs 0-1, po-ISS-ODN 20-100, po-ds-ISS-ODN 0-10, genomic DNAs 1-5 ng/reaction
T1 construct: purchased Promega
Description: The in vitro DNA-PK phosphorylation assay was performed according to Hammarsten et al. (2000), supra, with modification. Briefly, affinity-purified DNA-PK (Promega, Mo.) was incubated with various DNA preparations (described below), 0.5 μg of GST-p53 (1-70) and 3.3 μCi of γ-^32p-ATP in a 20 μl reaction buffer (10 mM Tris-Cl, 5 mM MgCl2, 0.3 mM EDTA and 10 μM ATP) at 30° C. for 30 minutes. The reaction was stopped by addition of 4× loading buffer. The samples were boiled, loaded on 9% SDS-PAGE, transferred onto a PVDF membrane and visualized by autoradiography.
The ODNs (ps-ss) used include an ISS-ODN with an active CpG motif (AACGTT), a methylated ISS-ODN at the ^5C of the CpG dinucleotide (AA*CGTT) and various control ODNs. These ODNs were incubated at concentrations of 0, 0.1, 0.3, or 1 ng/reaction. The po-ISS-ODN was incubated at concentration of 20, 50 or 100 ng/reaction. The po-ds-ISS-ODN was incubated at concentration of 0, 0.5, 1, 2, 5 or 10 ng/reaction. The bacterial or calf thymus DNAs were each incubated at concentration of 1, 2 or 5 ng/reaction. Electrophoretic gel mobility shift assay (EMSA) was performed as previously described. Chu et al. (1999) Immunity 11:721-731; and Li et al., 1999, supra). In vitro IKK kinase assays were performed using purified IKK derived from Sf9 insect cell lysates as was previously described. Zandi et al. (1998) Science 281:1360-1363.

[1] = target: T2, Ku antigen (Ku70/Ku80 heterodimer) (Mus musculus, UniProt P23475+P27641); experiment: EMSA inhibition study: cold ODN vs [32P]-labeled ds-ISS-ODN binding to Ku (affinity column fraction 20); settings: for displacement of the interaction of [32P]-labeled ds-ISS-ODN with Ku: unlabeled ODN 0.1, 0.2 and 0.4 μg, 10 μg of fraction 20
T2 construct: from tissue; host or cells: mouse liver (BALB/c)
Description: Purification of the ISS binding protein was accomplished by sequential ion exchange, heparin and ISS-ODN affinity chromatography, as follows. Due to the relative small tissue weight per spleen, liver lysate was used after confirming its reactivity to in vivo ISS injection, as described above. Crude liver extracts from 220 mice (BALB/c, Jackson Lab., Bar Harbour, Me.) or 15 New Zealand White rabbits (Simunek, Vista, Calif.) were prepared in homogenization buffer (20 mM HEPES, pH 7.6, 250 mM KCl, 0.1 mM EDTA, 0.5 mM EGTA, 20% glycerol) with 250 mM KCl and protease and phosphatase inhibitors and then centrifuged at 100,000×g for 1.5 hours at 4° C. The supernatant (400 ml) was filtered and loaded onto a Porous 20 QE column (17 ml, Pharmacia). Two μl (10 μg) of each fraction were used in a gel retardation assay to identify the location of proteins containing DNA binding activity using [^32P]-labeled ds-ISS-ODN as a probe. Fractions containing ISS-ODN binding activity were pooled (450 ml), buffered exchanged to low salt (50 mM KCl) and loaded onto a Heparin column (2 ml). The active fractions were subsequently loaded onto a 2 ml ds-ISS-ODN affinity column [CNBr-activated Sepharose 4B (Pharmacia) coupled to 320 μg of ds-ISS-ODNs with the sequence 5′-[…]-3′; SEQ ID NO: 21]. The column was washed with 8 ml of homogenization buffer containing 50 mM KCl and the bound proteins were eluted with a 20 ml linear gradient of 50 mM to 1.55 M KCl. One-ml fractions were collected and 2 μl of each were used to test for DNA binding activity. The active fractions were concentrated, separated by SDS-PAGE and stained with Coomassie Blue. The appearance of two bands with estimated molecular weights of 70 KDa and 80 KDa correlated with the DNA binding activity. Sequence analysis (Harvard Microsequencing Facility) of peptides derived from the two bands identified Ku70 and Ku80, respectively.
Mouse liver extracts were purified through anion (QE), heparin and ISS-based affinity chromatography, as described above. Two μl of each fraction (10 μg) were incubated with [^32 P]-labeled ds-ISS-ODN at 4° C. for 30 minutes. The samples were separated on a 5% acrylamide gel and the protein-DNA complexes were detected by autoradiography. […] The active fractions were separated by sodium dodecyl sulfate-polyacrylamide gel electrophoresis (SDS-PAGE), stained with Coomassie blue and micro-sequenced.
To verify the binding specificity of the Ku protein to ISS-ODN, inhibition studies were performed using cold ss or ds ISS or mutated (M, i.e., control) ODNs. Ten μg of fraction 20 from the affinity column were incubated with [^32P]-labeled ISS-ODN in the presence of unlabeled (0.1, 0.2 and 0.4 μg, respectively) ss-ISS-ODN (lanes 3-5), ds-ISS-ODN (lanes 7-9), ss-M-ODN (lanes 11-13) or ds-M-ODN (lanes 15-17).

[2] = test system: IL-6, IL-12 message in liver; experiment: RT-PCR for IL-6 and IL-12 message in livers of mice injected i.v. with ODN; type: in vivo; settings: mice i.v. 200 μl (1 μg/μl in PBS) of ss or ds ODN; 2.5 hours
IκB kinase (IKK) complex = experiment: IKK kinase assay on IKK complex immunoprecipitated from treated BMDM (IκBα N-terminus substrate); type: cell-based, mice
Description: Kinase assays and immunoblotting were performed according to Li et al. ((1999) J. Exp. Med. 189:1839-1845). Briefly, BMDM were treated with ISS-ODN (5 μg/ml), M-ODN (5 μg/ml) on ps and po backbones as indicated, LPS-free bacterial DNA or methylated bacterial DNA (5 μg/ml), LPS-free calf thymus DNA (5 μg/ml), LPS (10 μg/ml) or TNFα (10 ng/ml) for the indicated time periods. Cell lysates were prepared and normalized by immunoblotting (IB) with anti-IKKα polyclonal antibodies (Santa Cruz, Santa Cruz Biotech Inc., Calif.), anti-IKKβ polyclonal antbodies (Santa Cruz) or anti-DNA-PKcs monoclonal antibodies (NeoMarker, Calif.). IκB kinase (IKK) complex or DNA-PK complex from 100 μg of the lysates were immunoprecipitated by anti-IKKα or by anti-DNA-PKcs antibodies. The kinase activities (KA) were determined by a kinase assay using the N-terminus of IκBα (for IKK) or the N-terminus of p53 (for DNA-PK) as a substrate as previously described. Wang et al. (1992) Proc. Natl. Acad. Sci. USA 89:4231-4235; Li et al.(1999), supra; and Hammarsten et al. (2000) J. Biol. Chem. 275:1541-1545.

[3] = test system: bone marrow derived macrophages (BMDM); experiment: IL-6 and IL-12 levels in BMDM culture supernatants by ELISA; type: cell-based, mice; settings: BMDM
Description: Ku70^−/− and Ku80^−/− mice and their wild-type (wt) control on the 129 genetic background were generated by Dr. G. Li and bred at Memorial Sloan-Kettering Cancer Center (MSKCC), New York, N.Y. BMDM from wt, Ku70^−/− and Ku80^−/− mice (MSKCC) were prepared as was previously published (Martin-Orozco et al. (1999) Int. Immunol. 11:1111), and maintained in DMEM with 10% FBS, antibiotics and 20% L-cell medium and cultured for about 10 days to allow them to mature. BMDM were seeded (2.5×10^5/well in triplicate) on 96-well plates and treated with LPS (10 μg/ml), ISS-ODN (5 μg/ml) or M-ODN (5 μg/ml).
BMDM (2.5×10^5/well) from wt, or Ku70^−/− and Ku80^−/− mice were treated with LPS (1 μg/ml), ISS-ODN (5 μg/ml) or M-ODN (5 μg/ml) for 24 hours. IL-6 (A) or IL-12 (B) levels in the supernatants were determined by ELISA. Results are means±S.D, of 5 separate experiments for wt and Ku70^−/− and 3 separate experiments for Ku80^−/− mice. (C) BMDM were incubated with LPS (10 μg/ml) or ISS-ODN (5 μg/ml) for 6.5 hours. Total RNA was isolated and analyzed for the presence of IL-6, IL-12 and GAPDH messages by a Northern blot assay, as described in Example 1. Results are means±S.D. of 5 separate experiments for wt and Ku70^−/− and 3 separate experiments for Ku80^−/− mice.
DNA-PKcs^−/− and their wt control mice on the 129 genetic background were generated by Dr. G. C. Li and bred at Memorial Sloan-Kettering Cancer Center, New York, N.Y. IKKβ^−/− Tnfr1^−/− mice were generated by Drs. Z-W Li and Karin M. ATM^−/− mice on the C57BL/6 background were generated and bred by Dr. Y. Xu (UCSD) as was previously described (Xu et al.(1996) Genes Dev. 10:2411-2422) while their wild-type (wt) control were purchased from Jackson Laboratories (Bar Harbor, Me.). BMDMs from wt, DNA-PKcs^−/− mice, IKKβ^−/− Tnfr1^−/− and ATM^−/− mice were prepared as was previously published (Martin-Orozco et al. (1999) Intl. Immunol. 11:1111-1118), maintained in DMEM with 10% FBS, antibiotics and 20% L-cell medium and cultured for 7-10 days to allow them to mature. Prior to use BMDM were seeded (2.5×10^5/well in triplicate) in 96-well plates and than treated with LPS (1 μg/ml), ISS-ODN (5 μg/ml) or M-ODN (5 μg/ml), po-ISS-ODN (10 μg/ml) or po-ds-ISS-ODN (10 μg/ml), LPS-free, ultra pure bacterial DNA (E. coli, Sigma) (15 μg/ml) or methylated bacterial DNA or LPS-free, ultra pure calf thymus DNA (Sigma) (15 μg/ml). Methylation of bacterial DNA was performed by SssI methylase (Biolab, Boston, Mass.) (15 μg/ml) following manufacturer's instruction. Where indicated the PI3K inhibitor wortmannin (Wm), at various concentrations, was added to ISS-ODN or LPS stimulated BMDMs. After 24 hours in culture, the supernatants were collected and assayed for IL-6 and IL-12 levels by ELISA kits (PharMingen, San Diego, Calif.).

T2 sequence (P23475 2-608 limits assumed): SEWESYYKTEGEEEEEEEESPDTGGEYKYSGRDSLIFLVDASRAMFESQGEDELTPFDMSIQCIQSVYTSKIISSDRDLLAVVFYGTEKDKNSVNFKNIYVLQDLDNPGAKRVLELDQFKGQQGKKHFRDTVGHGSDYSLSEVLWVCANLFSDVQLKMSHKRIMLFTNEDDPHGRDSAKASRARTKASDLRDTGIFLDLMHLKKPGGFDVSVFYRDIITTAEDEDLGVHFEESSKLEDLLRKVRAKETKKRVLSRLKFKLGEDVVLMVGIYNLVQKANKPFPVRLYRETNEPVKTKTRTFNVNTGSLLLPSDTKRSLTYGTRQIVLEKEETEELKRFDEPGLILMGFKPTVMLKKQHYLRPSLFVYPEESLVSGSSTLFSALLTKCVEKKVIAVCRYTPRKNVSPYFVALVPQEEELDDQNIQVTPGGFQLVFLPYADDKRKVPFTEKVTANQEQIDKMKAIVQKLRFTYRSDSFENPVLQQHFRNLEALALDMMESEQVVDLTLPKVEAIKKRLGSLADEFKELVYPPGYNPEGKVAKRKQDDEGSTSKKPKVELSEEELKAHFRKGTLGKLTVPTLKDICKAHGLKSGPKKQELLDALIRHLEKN
T2 sequence (P27641 whole entry): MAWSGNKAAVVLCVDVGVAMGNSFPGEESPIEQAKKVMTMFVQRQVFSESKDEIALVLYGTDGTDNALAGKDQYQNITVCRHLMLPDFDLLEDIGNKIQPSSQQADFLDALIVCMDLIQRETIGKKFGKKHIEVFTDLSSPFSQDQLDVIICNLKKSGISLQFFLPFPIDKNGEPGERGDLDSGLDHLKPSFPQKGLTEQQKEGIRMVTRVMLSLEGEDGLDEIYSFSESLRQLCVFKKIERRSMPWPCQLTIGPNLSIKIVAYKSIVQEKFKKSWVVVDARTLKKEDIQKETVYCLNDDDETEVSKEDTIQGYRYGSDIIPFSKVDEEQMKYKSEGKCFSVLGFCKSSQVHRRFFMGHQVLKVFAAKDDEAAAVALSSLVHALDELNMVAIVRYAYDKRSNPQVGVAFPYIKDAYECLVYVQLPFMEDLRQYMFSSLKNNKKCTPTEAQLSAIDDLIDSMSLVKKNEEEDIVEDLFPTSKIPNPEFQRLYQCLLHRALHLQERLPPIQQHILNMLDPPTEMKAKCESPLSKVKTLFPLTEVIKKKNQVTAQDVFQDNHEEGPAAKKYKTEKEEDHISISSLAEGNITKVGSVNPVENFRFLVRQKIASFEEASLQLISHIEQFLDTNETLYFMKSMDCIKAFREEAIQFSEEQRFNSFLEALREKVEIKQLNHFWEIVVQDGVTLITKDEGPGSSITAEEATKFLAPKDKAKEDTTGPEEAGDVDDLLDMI

## 5′-TGACTGTGAA*CGTTAGAGATGA-3′ (DNA TGACTGTGAACGTTAGAGATGA; 5-methylcytosine, chemistry not fully specified) [Methylated ISS-ODN, *C denotes 5-methyl C, reference compound]
DNA-PK
  DNA-PK activity in vitro (phosphorylation of the N-terminal portion of p53): weaker DNA-PK activators than their unmethylated counterparts

## 5′-TGACTGTGAACCTTAGAGATGA-3′ [ds-M-ODN, reference compound]
[1]
  displacement of the interaction of [32P]-labeled ds-ISS-ODN with Ku: did not have any significant effect

## 5′-TGACTGTGAACGTTCGAGATGA-3′ [ds-ISS-ODN]
[1]
  displacement of the interaction of [32P]-labeled ds-ISS-ODN with Ku: displaced the interaction

## 5′-TGACTGTGAAGGTTAGAGATGA-3′ [M-ODN, reference compound]
[2]
  IL-6 and IL-12 message in liver (RT-PCR): did not display any immune stimulation; also recorded: lack of induction
[1]
  interaction of Ku with ODN: lack of interaction
IκB kinase (IKK) complex; wt BMDM
  IKK activation: little increase in IKK activity
IκB kinase (IKK) complex; wt BMDM (FIG. 5B)
  IKK activation, concentration series: little IKK activation

## O=c1cc(N2CCOCC2)oc2c(-c3ccccc3)cccc12 [Ly, Ly294002, reference compound]
[3]
  inhibition of LPS-induced secretion of IL-6 and IL-12: did not inhibit

## COC[C@H]1OC(=O)c2coc3c2[C@@]1(C)C1=C(C3=O)[C@@H]2CCC(=O)[C@@]2(C)C[C@H]1OC(C)=O [Wm, wortmannin, reference compound]
[3]
  inhibition of LPS-induced secretion of IL-6 and IL-12: did not inhibit
IκB kinase (IKK) complex; Wm at 1000 nM
  effect on IKK activation by TNFα: no effect

## TNFα [reference compound]
IκB kinase (IKK) complex; DNA-PKcs-/- BMDM as compared to wt
  IKK activation: fully responsive
